Data as given in US5786330A, “Peptide compounds which are therapeutically active in the cascade of blood coagulation, process for preparing them and pharmaceutical compositions containing them” (Adir et Compagnie, priority 1993, dated 1998).
*1 amine or outer side, *2 acyl side, *3 side chain or, on linkers, in order; H or OH if unused. Where a SMILES comes first, the peptide text is derived from it. [ ]: non-standard residue; d: D form. Phe(4-PO3H2) = N[C@@H](Cc1ccc(P(=O)(O)O)cc1)C(=O)O; Oic = O=C(O)[C@@H]1C[C@@H]2CCCC[C@@H]2N1; X1 = O=C([C@@H]1C2CCC(CC2)N1[*:1])[*:2]

What was measured:
[1] = target: T1, human thrombin (Homo sapiens, UniProt P00734); assay: inhibition of thrombin, fibrinogen as substrate; format: biochemical; details: 20 C, fibrin measured at 405 nm
T1 construct: human thrombin (Sigma, specific activity 3230 NIHU/mg); purchased Sigma
Protocol: (§1) In order to evaluate in vitro the inhibitory activity of the products of the invention on human thrombin (Sigma, specific activity 3230 NIHU/mg), human fibrinogen (purified or plasmatic) (Fg) or the chromogenic substrate H-D-Phe-Pip-Arg-pNA ([…], S 2238, Kabi) were added to a given quantity of thrombin (0.7 or 2 nM) previously incubated with or without the test inhibitor (20 C, 10 min).
(§2) In order to evaluate in vitro the selectivity of these products towards various coagulation serine proteases, the same procedure was applied to purified human plasmin (2 nM, Stago), to purified human activated factor X (2 nM, Stago), to kallikrein (2 nM, sigma), to urokinase (2 nM, sigma), to plasminogen tissue activator (t-PA; 2 nM, Stago) and to purified human activated protein C (2 nM, Stago) using, as substrate, various paranitroanilide-containing peptides. The inhibitors, enzymes and substrates are diluted in the same buffer ([…] phosphate buffer pH 7.4, containing 0.12M sodium chloride and 0.05% bovine serum albumin) and then distributed in a polystyrene microplate in a volume of 50 l.
(§3) The fibrin formed by thrombin or the paranitroanilide liberated by the action of the serin protease is measured spectrophotometrically at 405 nm after reacting for 15 to 30 minutes at 20° C. […] The results are expressed in IC50 value: the concentration in nM which inhibits the enzymatic activity by 50%.

[2] = target: T1, human thrombin; assay: inhibition of thrombin, chromogenic substrate H-D-Phe-Pip-Arg-pNA (S 2238); format: biochemical; details: 20 C, 405 nm
Protocol: as §1, §2, §3

[3] = test system: male OFA rats; assay: venous thrombosis induced by ligation of the vena cava inferior (weight of the clot); format: in vivo; details: rat, clot withdrawn 25 minutes after ligation
Protocol: The test animals are anesthetized by administration of sodium pentobarbital (50 mg/kg i.p.). 15 minutes before the ligation, the animals are treated with the test products via the i.v. route. The clot is withdrawn from the vena cava 25 minutes after the ligation, it is weighed after desiccation (24 hours at 60 C.).

[4] = test system: thrombin time (TT), human plasma; assay: thrombin time (TT) in vitro on human plasma; format: biochemical; details: human plasma low in platelets, citrate
Protocol: (§4) In the presence of a standard quantity of thrombin or activated cephalin, a normal plasma coagulates within a defined and constant time called thrombin time (TT) and activated cephalin time (ACT) respectively. The extension of these coagulation times by pharmacological substances reflects an anticoagulant effect.
(§5) The in vitro effect of the products of the invention was measured on human plasma. Blood was collected by venous puncture in a tube containing citrate. After decantation (1200 g, 10 min), the plasma low in platelets is decanted so as to then carry out the coagulation tests. […] The compound of Example 1 doubles the TT at the concentration of […] and the ACT at the concentration of […].

[5] = test system: activated cephalin time (ACT), human plasma; assay: activated cephalin time (ACT) in vitro on human plasma; format: biochemical; details: human plasma low in platelets, citrate
Protocol: as §4, §5

[6] = test system: thrombin time (TT), OFA rats; assay: thrombin time (TT) ex vivo in OFA rats; details: rat, 0.8 mg/kg i.v.
Protocol: as §4
(§6) The effect of the products was tested ex vivo in OFA rats anesthetized with sodium pentobarbital (60 mg/kg i.p.) The carotid artery and the jugular vein are catheterized. After installation of the catheters, 1.5 cm^3 of arterial blood are collected over citrate (0.109M). 30 minutes later, the test product is administered in a volume of 1 ml by i.v. Arterial samples (1.5 cm^3) are then collected at […], 3 min, 5 min, 15 min, 30 min and 60 min. At each collection of sample, 1.5 cm^3 of citrated physiological saline is reinjected into the animal via the carotid.

[7] = test system: activated cephalin time (ACT), OFA rats; assay: activated cephalin time (ACT) ex vivo in OFA rats; details: rat, 0.8 mg/kg i.v.
Protocol: as §4, §6

[8] = target: T2, purified human plasmin (Homo sapiens, UniProt P00747); assay: selectivity towards coagulation serine proteases: plasmin; format: biochemical; details: 2 nM enzyme, paranitroanilide-containing peptide substrate; read-out: IC50 with respect to plasmin
T2 construct: purified human plasmin (2 nM, Stago); purchased Stago
Protocol: as §2, §3

[9] = target: T3, purified human activated factor X (Homo sapiens, UniProt P00742); assay: selectivity towards coagulation serine proteases: activated factor X; format: biochemical; details: 2 nM enzyme, paranitroanilide-containing peptide substrate; read-out: IC50 with respect to activated factor X
T3 construct: purchased Stago
Protocol: as §2, §3

[10] = test system: kallikrein; assay: selectivity towards coagulation serine proteases: kallikrein; format: biochemical; details: 2 nM enzyme, paranitroanilide-containing peptide substrate; read-out: IC50 with respect to kallikrein
Protocol: as §2, §3

[11] = target: T4, urokinase (Homo sapiens, UniProt P00749); assay: selectivity towards coagulation serine proteases: urokinase; format: biochemical; details: 2 nM enzyme, paranitroanilide-containing peptide substrate; read-out: IC50 with respect to urokinase
T4 construct: purchased sigma
Protocol: as §2, §3

[12] = target: T5, plasminogen tissue activator (t-PA) (Homo sapiens, UniProt P00750); assay: selectivity towards coagulation serine proteases: t-PA; format: biochemical; details: 2 nM enzyme, paranitroanilide-containing peptide substrate; read-out: IC50 with respect to t-PA
T5 construct: purchased Stago
Protocol: as §2, §3

[13] = target: T6, purified human activated protein C (Homo sapiens, UniProt P04070); assay: selectivity towards coagulation serine proteases: activated protein C; format: biochemical; details: 2 nM enzyme, paranitroanilide-containing peptide substrate; read-out: IC50 with respect to activated protein C
T6 construct: purchased Stago
Protocol: as §2, §3

T3 sequence (P00742 235-488 limits assumed): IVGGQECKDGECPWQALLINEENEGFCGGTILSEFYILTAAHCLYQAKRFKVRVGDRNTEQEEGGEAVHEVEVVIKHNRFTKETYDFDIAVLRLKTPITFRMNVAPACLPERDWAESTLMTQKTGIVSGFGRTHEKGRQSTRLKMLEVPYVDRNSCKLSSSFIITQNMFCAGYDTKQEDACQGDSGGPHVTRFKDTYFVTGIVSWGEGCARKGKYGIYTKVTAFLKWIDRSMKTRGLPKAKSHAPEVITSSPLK
T3 sequence (P00742 41-179 limits assumed): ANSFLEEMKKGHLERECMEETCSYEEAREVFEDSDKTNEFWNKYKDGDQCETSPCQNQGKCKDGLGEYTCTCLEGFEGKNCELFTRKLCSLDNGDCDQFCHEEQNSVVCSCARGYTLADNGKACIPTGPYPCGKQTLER
T6 sequence (P04070 212-450 limits assumed): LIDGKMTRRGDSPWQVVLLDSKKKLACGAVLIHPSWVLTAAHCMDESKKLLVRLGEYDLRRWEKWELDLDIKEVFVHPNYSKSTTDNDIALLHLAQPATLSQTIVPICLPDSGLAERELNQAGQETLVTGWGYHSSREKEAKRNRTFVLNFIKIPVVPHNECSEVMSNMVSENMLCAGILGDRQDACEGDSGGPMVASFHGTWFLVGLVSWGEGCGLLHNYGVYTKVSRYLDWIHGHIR
T6 sequence (P04070 43-197 limits assumed): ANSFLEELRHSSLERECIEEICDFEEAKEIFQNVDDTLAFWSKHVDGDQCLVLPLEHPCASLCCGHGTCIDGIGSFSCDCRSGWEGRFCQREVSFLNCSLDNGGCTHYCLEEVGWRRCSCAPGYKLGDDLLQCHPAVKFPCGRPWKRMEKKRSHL
T2 sequence (P00747 581-810 limits assumed): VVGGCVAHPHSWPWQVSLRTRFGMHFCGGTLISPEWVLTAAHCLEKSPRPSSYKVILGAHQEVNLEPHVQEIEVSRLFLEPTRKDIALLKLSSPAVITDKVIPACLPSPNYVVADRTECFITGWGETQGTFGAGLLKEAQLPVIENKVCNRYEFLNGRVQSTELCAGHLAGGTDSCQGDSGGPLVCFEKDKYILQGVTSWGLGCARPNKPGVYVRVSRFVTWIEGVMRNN
T2 sequence (P00747 97-580 limits assumed): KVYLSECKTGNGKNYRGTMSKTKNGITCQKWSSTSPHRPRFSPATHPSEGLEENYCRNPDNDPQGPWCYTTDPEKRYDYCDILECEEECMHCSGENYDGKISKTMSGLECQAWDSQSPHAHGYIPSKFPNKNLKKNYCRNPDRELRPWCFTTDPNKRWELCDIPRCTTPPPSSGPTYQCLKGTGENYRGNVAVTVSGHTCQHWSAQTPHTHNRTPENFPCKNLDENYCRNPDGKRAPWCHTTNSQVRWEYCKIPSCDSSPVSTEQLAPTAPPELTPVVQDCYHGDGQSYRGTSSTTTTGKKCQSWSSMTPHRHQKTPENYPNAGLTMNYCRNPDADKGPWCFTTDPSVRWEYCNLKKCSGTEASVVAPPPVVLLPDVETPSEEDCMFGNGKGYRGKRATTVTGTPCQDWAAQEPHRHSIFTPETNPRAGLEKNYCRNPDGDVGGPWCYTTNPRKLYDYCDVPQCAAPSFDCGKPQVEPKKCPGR
T5 sequence (P00750 23-562 limits assumed, species assumed): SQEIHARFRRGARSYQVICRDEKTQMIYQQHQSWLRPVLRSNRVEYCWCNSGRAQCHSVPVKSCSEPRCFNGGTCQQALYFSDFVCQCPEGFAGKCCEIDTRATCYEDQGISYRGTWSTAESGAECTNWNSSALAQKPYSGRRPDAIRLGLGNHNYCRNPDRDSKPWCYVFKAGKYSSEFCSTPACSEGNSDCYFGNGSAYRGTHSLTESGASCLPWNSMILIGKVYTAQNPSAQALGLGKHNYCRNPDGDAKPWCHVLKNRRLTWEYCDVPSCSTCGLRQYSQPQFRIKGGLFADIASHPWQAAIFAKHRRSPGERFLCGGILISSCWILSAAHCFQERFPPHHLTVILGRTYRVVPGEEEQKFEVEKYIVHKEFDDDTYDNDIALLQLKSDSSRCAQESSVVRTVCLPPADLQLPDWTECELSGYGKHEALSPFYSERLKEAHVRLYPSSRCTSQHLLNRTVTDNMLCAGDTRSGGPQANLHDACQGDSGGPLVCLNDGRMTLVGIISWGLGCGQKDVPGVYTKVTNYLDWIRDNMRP

## CC[C@H](C)[C@H](NC(=O)[C@@H]1C2CCC(CC2)N1C(=O)[C@H](CCC(=O)O)NC(=O)[C@H](Cc1ccccc1)NC(=O)[C@H](CC(=O)O)NC(=O)CNC(=O)[C@H](CC(N)=O)NC(=O)CNC(=O)CNC(=O)CNC(=O)CNC(=O)[C@@H]1CCCN1C(=O)[C@H](CCCNC(=N)N)NC(=O)[C@@H]1CCCN1C(=O)[C@H](N)Cc1ccccc1)C(=O)N1CCC[C@H]1C(=O)N[C@@H](CCC(=O)O)C(=O)N[C@@H](CCC(=O)O)C(=O)N[C@@H](Cc1ccc(P(=O)(O)O)cc1)C(=O)N[C@@H](CC(C)C)C(=O)N[C@H](CCC(=O)O)C(=O)O [Example 1, H-phe-Pro-Arg-Pro-(Gly)4 -Asn-Gly-Asp-Phe-Glu-Abo-Ile-Pro-(Glu)2 -Phe(pPO3 H2)-Leu-glu-OH] (H-[dF]PRPGGGGNGDFE[X1]IPEE[Phe(4-PO3H2)]L[dE]-OH)
[1]
  IC50: 6.1 nM
[2]
  IC50: 18 nM

## CC[C@H](C)[C@H](NC(=O)[C@@H]1C2CCC(CC2)N1C(=O)[C@H](CCC(=O)O)NC(=O)[C@H](Cc1ccccc1)NC(=O)[C@H](CC(=O)O)NC(=O)CNC(=O)[C@H](CC(N)=O)NC(=O)CNC(=O)CNC(=O)CNC(=O)CNC(=O)[C@@H]1CCCN1C(=O)[C@H](CCCNC(=N)N)NC(=O)[C@@H]1C[C@@H]2CCCC[C@@H]2N1C(=O)[C@H](N)Cc1ccccc1)C(=O)N1CCC[C@H]1C(=O)N[C@@H](CCC(=O)O)C(=O)N[C@@H](CCC(=O)O)C(=O)N[C@@H](Cc1ccc(P(=O)(O)O)cc1)C(=O)N[C@@H](CC(C)C)C(=O)N[C@H](CCC(=O)O)C(=O)O [Example 2, H-phe-Oic-Arg-Pro-(Gly)4 -Asn-Gly-Asp-Phe-Glu-Abo-Ile-Pro-(Glu)2 -Phe(pPO3 H2)-Leu-glu-OH] (H-[dF][Oic]RPGGGGNGDFE[X1]IPEE[Phe(4-PO3H2)]L[dE]-OH)
[1]
  IC50: 4 nM
[2]
  IC50: 15 nM

## CC[C@H](C)[C@H](NC(=O)[C@H](CCC(=O)O)NC(=O)[C@H](CCC(=O)O)NC(=O)[C@H](Cc1ccccc1)NC(=O)[C@H](CC(=O)O)NC(=O)CNC(=O)[C@H](CC(N)=O)NC(=O)CNC(=O)CNC(=O)CNC(=O)CNC(=O)[C@@H]1CCCN1C(=O)[C@H](CCCNC(=N)N)NC(=O)[C@@H]1CCCN1C(=O)[C@H](N)Cc1ccccc1)C(=O)N1CCC[C@H]1C(=O)N[C@@H](CCC(=O)O)C(=O)N[C@@H](CCC(=O)O)C(=O)N[C@@H](Cc1ccc(O)cc1)C(=O)N[C@@H](CC(C)C)C(=O)O [hirulog-1]
[3]; 0.1 mg/kg i.v. 15 minutes before ligation
  Decrease in the weight of the clot in %: -0%
[3]; 1 mg/kg i.v. 15 minutes before ligation
  Decrease in the weight of the clot in %: -46%
[4]
  concentration that doubles the TT: 0.07 M
[5]
  concentration that doubles the ACT: 0.2 M
[6]; 1.5 min
  Increase in the TT (multiplicative factor): 13
[6]; 3 min
  Increase in the TT (multiplicative factor): 11
[6]; 5 min
  Increase in the TT (multiplicative factor): 9.8
[6]; 15 min
  Increase in the TT (multiplicative factor): 6.6
[6]; 30 min
  Increase in the TT (multiplicative factor): 4.2
[6]; 60 min
  Increase in the TT (multiplicative factor): 2.2
[7]; 1.5 min
  Increase in the ACT (multiplicative factor): 3.8
[7]; 3 min
  Increase in the ACT (multiplicative factor): 3.2
[7]; 5 min
  Increase in the ACT (multiplicative factor): 2.6
[7]; 15 min
  Increase in the ACT (multiplicative factor): 2.1
[7]; 30 min
  Increase in the ACT (multiplicative factor): 1.6
[7]; 60 min
  Increase in the ACT (multiplicative factor): 1.3
[8]
  IC50: > 33000 nM
[9]
  IC50: > 33000 nM
[10]
  IC50: > 33000 nM
[11]
  IC50: > 33000 nM
[12]
  IC50: > 33000 nM
[13]
  IC50: > 33000 nM
